The results in this text go back to US6150385A, “1,3,4-thiadiazoles useful for the treatment of CMV infections” (Pharmacia & Upjohn Company, priority 1999, dated 2000).

T1 sequence (P08546 whole entry): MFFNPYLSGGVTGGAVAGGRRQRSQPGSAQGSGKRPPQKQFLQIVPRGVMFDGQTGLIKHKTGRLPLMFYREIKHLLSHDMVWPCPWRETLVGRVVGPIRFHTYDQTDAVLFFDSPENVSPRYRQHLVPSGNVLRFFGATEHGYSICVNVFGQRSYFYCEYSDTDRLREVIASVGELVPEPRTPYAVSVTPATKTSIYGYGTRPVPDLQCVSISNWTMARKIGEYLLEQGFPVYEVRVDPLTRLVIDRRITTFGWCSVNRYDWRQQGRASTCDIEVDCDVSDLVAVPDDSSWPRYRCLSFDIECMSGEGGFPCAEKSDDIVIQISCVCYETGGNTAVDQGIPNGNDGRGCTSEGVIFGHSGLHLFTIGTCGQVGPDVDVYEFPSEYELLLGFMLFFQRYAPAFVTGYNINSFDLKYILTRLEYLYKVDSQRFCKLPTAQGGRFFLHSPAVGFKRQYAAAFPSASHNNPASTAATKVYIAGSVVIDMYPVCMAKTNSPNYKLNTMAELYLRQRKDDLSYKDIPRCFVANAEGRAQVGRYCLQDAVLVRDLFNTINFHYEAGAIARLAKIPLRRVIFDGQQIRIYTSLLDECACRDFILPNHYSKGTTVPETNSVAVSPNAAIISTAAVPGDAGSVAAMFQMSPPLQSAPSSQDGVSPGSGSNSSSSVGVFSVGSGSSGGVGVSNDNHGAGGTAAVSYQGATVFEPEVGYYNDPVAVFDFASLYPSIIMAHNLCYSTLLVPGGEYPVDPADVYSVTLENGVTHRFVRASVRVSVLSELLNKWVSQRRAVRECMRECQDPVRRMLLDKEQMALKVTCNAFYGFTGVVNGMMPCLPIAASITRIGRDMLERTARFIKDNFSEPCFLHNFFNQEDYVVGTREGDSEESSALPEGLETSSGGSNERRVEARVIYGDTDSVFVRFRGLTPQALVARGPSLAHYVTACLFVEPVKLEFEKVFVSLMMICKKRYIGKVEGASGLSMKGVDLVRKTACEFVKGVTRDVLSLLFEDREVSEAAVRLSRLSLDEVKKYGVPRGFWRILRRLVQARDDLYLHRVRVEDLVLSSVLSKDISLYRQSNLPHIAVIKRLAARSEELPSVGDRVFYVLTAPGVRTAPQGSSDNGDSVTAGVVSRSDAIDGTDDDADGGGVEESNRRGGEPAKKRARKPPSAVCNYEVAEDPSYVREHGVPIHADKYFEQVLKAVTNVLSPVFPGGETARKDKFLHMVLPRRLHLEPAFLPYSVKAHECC

This assay concerns the target T1, HCMV polymerase (Human cytomegalovirus, UniProt P08546).
T1 construct: made in house; host or cells: SF-9 insect cells infected with recombinant baculovirus
Nature of the assay: HCMV polymerase assay (scintillation proximity assay). Format: biochemical. The following applies: percentage of inhibition at 25 μM concentration in CMV polymerase assay. Put shortly: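 Values are percent inhibition at 25 μM, measured by scintillation proximity after capture of biotinylated poly(dA)-oligo(dT) (6 nM) extended with 90 nM 3H-dTTP. Recombinant SF-9-derived enzyme reacted 30 min at 25 or 37 °C in HEPES pH 7.5/KCl/MgCl2/BSA buffer, ±2 mM CHAPS, before EDTA termination.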
In general terms: Scintillation proximity formats need no separation of bound from free tracer.
As a reminder, the inhibition is how much of the control response was suppressed. Lower therefore signals a weak effect. `CC(C)c1cc(C(C)C)c(C(=O)Nc2nnc(NCc3ccc4c(c3)OCO4)s2)c(C(C)C)c1` [compound 358, N-{5-[(1,3-benzodioxol-5-ylmethyl)amino]-1,3,4-thiadiazol-2-yl}-2,4,6-triisopropylbenzamide] had an inhibition at 25 µM of 29.3%.
The result for `N#Cc1ccc(C(=O)Nc2nnc(NCCCN3CCCC3=O)s2)cc1` [compound 158, 4-cyano-N-(5-{[3-(2-oxo-1-pyrrolidinyl)propyl]amino}-1,3,4-thiadiazol-2-yl)benzamide] reads 52.9%; that for `CCOc1ccc2ccccc2c1C(=O)Nc1nnc(NCCc2c[nH]c3ccccc23)s1` [compound 141, 2-ethoxy-N-(5-{[2-(1H-indol-3-yl)ethyl]amino}-1,3,4-thiadiazol-2-yl)-1-naphthamide], 55.7%; that for `CCOc1ccc2ccccc2c1C(=O)Nc1nnc(NC2CCN(Cc3ccccc3)CC2)s1` [compound 45, N-{5-[(1-benzyl-4-piperidinyl)amino]-1,3,4-thiadiazol-2-yl}-2-ethoxy-1-naphthamide], 83.1%.
The result for `O=C(Nc1nnc(NCCCn2ccnc2)s1)c1ccc(I)cc1` [compound 324, N-(5-{[3-(1H-imidazol-1-yl)propyl]amino}-1,3,4-thiadiazol-2-yl)-4-iodobenzamide] reads 32.9%; that for `CCCCCCCCCCCNc1nnc(NC(=O)/C=C/c2ccccc2)s1` [compound 342, (E)-3-phenyl-N-[5-(undecylamino)-1,3,4-thiadiazol-2-yl]-2-propenamide], 31.2%; that for `CCCCCCCCCCCNc1nnc(NC(=O)c2c(C(C)C)cc(C(C)C)cc2C(C)C)s1` [compound 441, 2,4,6-triisopropyl-N-[5-(undecylamino)-1,3,4-thiadiazol-2-yl]benzamide], 22.5%.
The result for `O=C(Nc1nnc(NCCCCc2ccccc2)s1)c1ccc2c(c1)C(=O)OC2=O` [compound 11, 1,3-dioxo-N-{5-[(4-phenylbutyl)amino]-1,3,4-thiadiazol-2-yl}-1,3-dihydro-2-benzofuran-5-carboxamide] reads 99.6%; that for `CC1(C)C2CC[C@@H](CNc3nnc(NC(=O)c4cc5ccccc5s4)s3)C1C2` (stereo partly drawn) [compound 403, N-[5-({[(2R)-6,6-dimethylbicyclo[3.1.1]hept-2-yl]methyl}amino)-1,3,4-thiadiazol-2-yl]-1-benzothiophene-2-carboxamide], 25.3%.
Molecule `CC(C)c1cc(C(C)C)c(C(=O)Nc2nnc(NCc3ccc(S(N)(=O)=O)cc3)s2)c(C(C)C)c1` [compound 35, N-(5-{[4-(aminosulfonyl)benzyl]amino}-1,3,4-thiadiazol-2-yl)-2,4,6-triisopropylbenzamide] came in with an inhibition at 25 µM of 89.7%.
The result for `O=C(/C=C/c1ccccc1Cl)Nc1nnc(NC2CCCc3ccccc32)s1` (stereo not shown) [compound 374, (E)-3-(2-chlorophenyl)-N-[5-(1,2,3,4-tetrahydro-1-naphthalenylamino)-1,3,4-thiadiazol-2-yl]-2-propenamide] reads 28.1%.
The result for `CC1(C)C2CC[C@@H](CNc3nnc(NC(=O)CCCCCl)s3)C1C2` (stereo partly drawn) [compound 312, 5-chloro-N-[5-({[(2R)-6,6-dimethylbicyclo[3.1.1]hept-2-yl]methyl}amino)-1,3,4-thiadiazol-2-yl]pentanamide] reads 33.9%.
The result for `CCCCCCCC/C=C/CCCCCCCC(=O)Nc1nnc(NCCNc2ccccc2)s1` [compound 179, (E)-N-{5-[(2-anilinoethyl)amino]-1,3,4-thiadiazol-2-yl}-9-octadecenamide] reads 48.5%; that for `CC(C)c1cc(C(C)C)c(C(=O)Nc2nnc(NCCN3CCCCC3)s2)c(C(C)C)c1` [compound 232, 2,4,6-triisopropyl-N-{5-[(2-piperidinoethyl)amino]-1,3,4-thiadiazol-2-yl}benzamide], 42.2%.
As for `N#Cc1ccc(C(=O)Nc2nnc(NCCCNC3CCCCC3)s2)cc1` [compound 127], 25 µM produced 58.5% inhibition.
As to `O=C(Nc1nnc(NCc2ccc(Cl)c(Cl)c2)s1)c1ccc([N+](=O)[O-])o1` [compound 350, N-{5-[(3,4-dichlorobenzyl)amino]-1,3,4-thiadiazol-2-yl}-5-nitro-2-furamide], the inhibition at 25 µM came out at 30.3%.
To `O=C(Nc1nnc(NC2CCN(Cc3ccccc3)CC2)s1)c1ccc2c(c1)C(=O)OC2=O` [compound 85, N-{5-[(1-benzyl-4-piperidinyl)amino]-1,3,4-thiadiazol-2-yl}-1,3-dioxo-1,3-dihydro-2-benzofuran-5-carboxamide] belongs 67.3%; to `COc1ccc(CNc2nnc(NC(=O)c3cccc([N+](=O)[O-])c3)s2)cc1OC` [compound 436, N-{5-[(3,4-dimethoxybenzyl)amino]-1,3,4-thiadiazol-2-yl}-3-nitrobenzamide], 22.8%; to `O=C(Nc1nnc(NCCCNC2CCCCC2)s1)c1c(Cl)cccc1Cl` [compound 37, 2,6-dichloro-N-(5-{[3-(cyclohexylamino)propyl]amino}-1,3,4-thiadiazol-2-yl)benzamide], 87.4%.
To `O=C(Nc1nnc(NCc2ccc(Cl)c(Cl)c2)s1)c1cccc([N+](=O)[O-])c1` [compound 462, N-{5-[(3,4-dichlorobenzyl)amino]-1,3,4-thiadiazol-2-yl}-3-nitrobenzamide] belongs 20.5%.
The result for `CN1CCN(CCCNc2nnc(NC(=O)/C=C/c3ccccc3Cl)s2)CC1` [compound 422, (E)-3-(2-chlorophenyl)-N-(5-{[3-(4-methylpiperazino)propyl]amino}-1,3,4-thiadiazol-2-yl)-2-propenamide] reads 24%.
Take `O=C(/C=C/c1ccccc1)Nc1nnc(NCCCCc2ccccc2)s1` [compound 81, (E)-3-phenyl-N-{5-[(4-phenylbutyl)amino]-1,3,4-thiadiazol-2-yl}-2-propenamide]: the inhibition at 25 µM was found to be 67.9%.
In turn, `O=C(/C=C/c1ccccc1)Nc1nnc(NCCc2c[nH]c3ccccc23)s1` [compound 153, (E)-N-(5-{[2-(1H-indol-3-yl)ethyl]amino}-1,3,4-thiadiazol-2-yl)-3-phenyl-2-propenamide] had an inhibition at 25 µM of 53.7%.
Molecule `O=C(CCCCCl)Nc1nnc(NCCC(c2ccccc2)c2ccccc2)s1` [compound 183, 5-chloro-N-{5-[(3,3-diphenylpropyl)amino]-1,3,4-thiadiazol-2-yl}pentanamide] came in with an inhibition at 25 µM of 48.1%.
To `O=C(Nc1nnc(NCCCNC2CCCCC2)s1)c1cc(F)cc(F)c1` [compound 275, N-(5-{[3-(cyclohexylamino)propyl]amino]-1,3,4-thiadiazol-2-yl)-3,5-difluorobenzamide] belongs 37.9%; to `CCSCCNc1nnc(NC(=O)/C=C/c2ccccc2Cl)s1` [compound 193, (E)-3-(2-chlorophenyl)-N-(5-{[2-(ethylsulfanyl)ethyl]amino}-1,3,4-thiadiazol-2-yl)-2-propenamide], 46.9%; to `O=C(Nc1nnc(NCCc2cccs2)s1)c1ccc2c(c1)C(=O)OC2=O` [compound 9, 1,3-dioxo-N-(5-{[2-(2-thienyl)ethyl]amino}-1,3,4-thiadiazol-2-yl)-1,3-dihydro-2-benzofuran-5-carboxamide], 99.8%.
To `CCOc1ccc2ccccc2c1C(=O)Nc1nnc(NCc2ccco2)s1` [compound 213, 2-ethoxy-N-{5-[(2-furylmethyl)amino]-1,3,4-thiadiazol-2-yl}-1-naphthamide] belongs 44.2%; to `NS(=O)(=O)c1ccc(CCNc2nnc(NC(=O)c3ccc(I)cc3)s2)cc1` [compound 68, N-(5-{[4-(aminosulfonyl)phenthyl]amino}-1,3,4-thiadiazol-2-yl)-4-iodobenzamide], 71.1%; to `O=C(CCCCCl)Nc1nnc(NCCCCc2ccccc2)s1` [compound 382, 5-chloro-N-{5-[(4-phenylbutyl)amino]-1,3,4-thiadiazol-2-yl}pentanamide], 27.3%.
The result for `CCCCCCCC/C=C/CCCCCCCC(=O)Nc1nnc(NCCN2CCCC2)s1` [compound 19, (E)-N-(5-{[2-(1-pyrrolidinyl)ethyl]amino}-1,3,4-thiadiazol-2-yl)-9-octadecenamide] reads 97.7%; that for `CCCCCCCC/C=C/CCCCCCCC(=O)Nc1nnc(NCCCNC2CCCCC2)s1` [compound 1, (E)-N-(5-{[3-(cyclohexylamino)propyl]amino}-1,3,4-thiadiazol-2-yl)-9-octadecenamide], 100%.
As to `CCCCCCCCCCCNc1nnc(NC(=O)c2c(Cl)cccc2Cl)s1` [compound 410, 2,6-dichloro-N-[5-(undecylamino)-1,3,4-thiadiazol-2-yl]benzamide], the inhibition at 25 µM was 24.9%.
The molecule `O=C(Nc1nnc(NCc2cccs2)s1)c1ccc(I)cc1` [compound 425, 4-iodo-N-{5-[(2-thienylmethyl)amino]-1,3,4-thiadiazol-2-yl}benzamide] yielded an inhibition at 25 µM of 23.5%.
The result for `COc1ccc(CNc2nnc(NC(=O)c3c(Cl)cccc3Cl)s2)cc1OC` [compound 280, 2,6-dichloro-N-{5-[(3,4-dimethoxybenzyl)amino]-1,3,4-thiadiazol-2-yl}benzamide] reads 37.3%.
The result for `O=C(/C=C/c1ccccc1Cl)Nc1nnc(NCC2CC2)s1` [compound 34, (E)-3-(2-chlorophenyl)-N-{5-[(cyclopropylmethyl)amino]-1,3,4-thiadiazol-2-yl}-2-propenamide] reads 89.9%.
To `O=C(/C=C/c1ccccc1Cl)Nc1nnc(NCCCN2CCCC2=O)s1` [compound 208, (E)-3-(2-chlorophenyl)-N-(5-{[3-(2-oxo-1-pyrrolidinyl)propyl]amino}-1,3,4-thiadiazol-2-yl)-2-propenamide] belongs 44.7%.
